Active and inactive are the calls of the source. The calls are words filed in the database; no cut-off is given here.
Tests used:
Mus musculus [1] = experiment: Antidepressant-like activity in Swiss albino mouse assessed as immobilization time at 5 mg/kg, ip after 30 mins by forced swim test; type: functional, organism-based; set-up: dose 5 mg/kg
Mus musculus [2] = experiment: Antipsychotic activity in mouse assessed as reversal of DOI-induced head twitches at 10 mg/kg, ip administered 30 mins before DOI challenge; type: functional; conditions: route intraperitoneal
Mus musculus [3] = species: Mus musculus; conditions: Swiss albino, 2.5 mg/kg
Description: Hypothermic effect in Swiss albino mouse assessed as change in body temperature at 2.5 mg/kg, ip measured after 60 mins

Mus musculus [4] = experiment: Antipsychotic activity in mouse assessed as reversal of DOI-induced head twitches at 20 mg/kg, ip administered 30 mins before DOI challenge; type: functional; conditions: route intraperitoneal
Mus musculus [5] = species: Mus musculus; conditions: Swiss albino, 5 mg/kg
Description: Hypothermic effect in Swiss albino mouse assessed as change in body temperature at 5 mg/kg, ip measured after 60 mins in presence of 0.1 mg/kg, sc 5-HT1A antagonist WAY 100635

[6] = molecular target: 5-hydroxytryptamine receptor 2A (Rattus norvegicus, UniProt P14842); experiment: Displacement of [3H]ketanserin from 5HT2A in rat brain cerebral cortex after 20 mins by scintillation counting; type: tissue-based
5-hydroxytryptamine receptor 2A, sequence (P14842 whole entry): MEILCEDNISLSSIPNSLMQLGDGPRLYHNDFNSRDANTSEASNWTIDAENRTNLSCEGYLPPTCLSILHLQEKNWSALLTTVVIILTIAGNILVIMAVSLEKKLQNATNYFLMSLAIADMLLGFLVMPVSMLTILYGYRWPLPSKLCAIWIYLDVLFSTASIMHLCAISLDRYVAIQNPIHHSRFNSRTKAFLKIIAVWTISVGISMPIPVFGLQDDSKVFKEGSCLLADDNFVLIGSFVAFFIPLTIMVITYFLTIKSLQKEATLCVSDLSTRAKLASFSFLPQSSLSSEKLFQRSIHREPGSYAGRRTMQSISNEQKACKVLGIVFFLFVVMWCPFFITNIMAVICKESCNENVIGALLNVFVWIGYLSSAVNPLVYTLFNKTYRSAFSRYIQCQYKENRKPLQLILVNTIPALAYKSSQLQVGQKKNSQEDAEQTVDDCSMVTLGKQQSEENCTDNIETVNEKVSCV

Mus musculus [7] = species: Mus musculus; conditions: Swiss albino, 5 mg/kg; remark: listed apart in the source
Description: Hypothermic effect in Swiss albino mouse assessed as change in body temperature at 5 mg/kg, ip measured after 60 mins

Mus musculus [8] = species: Mus musculus; conditions: Swiss albino, 5 mg/kg; remark: listed apart in the source
Description: Hypothermic effect in Swiss albino mouse assessed as change in body temperature at 5 mg/kg, ip measured after 120 mins

Mus musculus [9] = experiment: Antipsychotic activity in mouse assessed as reversal of DOI-induced head twitches at 5 mg/kg, ip administered 30 mins before DOI challenge; type: functional; conditions: route intraperitoneal
D(2) dopamine receptor = D(2) dopamine receptor (Rattus norvegicus, UniProt P61169); experiment: Displacement of [3H]spiperone from dopamine D2 receptor in rat striatum tissue after 20 mins by scintillation counting; type: tissue-based
D(2) dopamine receptor, sequence (P61169 whole entry): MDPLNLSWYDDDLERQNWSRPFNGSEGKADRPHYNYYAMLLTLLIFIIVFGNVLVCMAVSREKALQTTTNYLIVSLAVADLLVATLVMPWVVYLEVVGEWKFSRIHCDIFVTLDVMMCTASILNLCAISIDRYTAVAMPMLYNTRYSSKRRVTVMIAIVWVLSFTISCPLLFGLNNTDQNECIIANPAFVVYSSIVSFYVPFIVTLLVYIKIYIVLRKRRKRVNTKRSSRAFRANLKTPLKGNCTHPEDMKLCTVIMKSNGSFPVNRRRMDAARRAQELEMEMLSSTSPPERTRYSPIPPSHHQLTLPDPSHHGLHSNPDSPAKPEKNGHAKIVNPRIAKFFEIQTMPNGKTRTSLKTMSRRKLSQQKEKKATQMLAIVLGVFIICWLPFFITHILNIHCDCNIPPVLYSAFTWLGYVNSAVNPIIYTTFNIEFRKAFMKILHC

Rattus norvegicus [10] = experiment: Induction of 5HT1A receptor in rat assesses as lower lip retractions at 10 mg/kg, iv after 15 mins (reference value: 0.1 +/- 0.1 retractions); type: functional
Rattus norvegicus [11] = experiment: Antipsychotic activity in 8-OH-DPAT-stimulated rat assessed as lower lip retractions at 10 mg/kg, iv administered 45 mins before 8-OH-DPAT challenge measured after 15 to 45 mins (reference value: 2.9 retractions); type: functional
Mus musculus [12] = experiment: Antidepressant-like activity in Swiss albino mouse assessed as immobilization time at 2.5 mg/kg, ip after 30 mins by forced swim test; type: functional, organism-based; set-up: dose 2.5 mg/kg
Mus musculus [13] = experiment: Anxiolytic-like activity in mouse assessed as number of punished crossing at 5 mg/kg, ip after 30 mins by four-plate test (reference value: 1514 +/- 73 crossings); type: functional; conditions: route intraperitoneal
Mus musculus [14] = species: Mus musculus; conditions: Swiss albino, 5 mg/kg; remark: listed apart in the source
Description: Hypothermic effect in Swiss albino mouse assessed as change in body temperature at 5 mg/kg, ip measured after 30 mins

Rattus norvegicus [15] = experiment: Antipsychotic activity in 8-OH-DPAT-stimulated rat assessed as lower lip retractions at 5 mg/kg, iv administered 45 mins before 8-OH-DPAT challenge measured after 15 to 45 mins (reference value: 2.9 retractions); type: functional
Rattus norvegicus [16] = experiment: Induction of 5HT1A receptor in rat assesses as lower lip retractions at 20 mg/kg, iv after 15 mins (reference value: 0.1 +/- 0.1 retractions); type: functional
Mus musculus [17] = species: Mus musculus; conditions: Swiss albino, 2.5 mg/kg; remark: listed apart in the source
Description: Hypothermic effect in Swiss albino mouse assessed as change in body temperature at 2.5 mg/kg, ip measured after 30 mins

Mus musculus [18] = species: Mus musculus; conditions: Swiss albino, 2.5 mg/kg; remark: listed apart in the source
Description: Hypothermic effect in Swiss albino mouse assessed as change in body temperature at 2.5 mg/kg, ip measured after 120 mins

Mus musculus [19] = species: Mus musculus; conditions: Swiss albino, 2.5 mg/kg; remark: listed apart in the source
Description: Hypothermic effect in Swiss albino mouse assessed as change in body temperature at 2.5 mg/kg, ip measured after 90 mins

Mus musculus [20] = species: Mus musculus; conditions: Swiss albino, 5 mg/kg; remark: listed apart in the source
Description: Hypothermic effect in Swiss albino mouse assessed as change in body temperature at 5 mg/kg, ip measured after 90 mins

[21] = molecular target: T1, 5-hydroxytryptamine receptor 1A (Rattus norvegicus, UniProt P19327); experiment: Displacement of [3H]8OH-DPAT from 5HT1A in rat brain cerebral cortex after 15 mins by scintillation counting; type: tissue-based
T1 sequence (P19327 whole entry): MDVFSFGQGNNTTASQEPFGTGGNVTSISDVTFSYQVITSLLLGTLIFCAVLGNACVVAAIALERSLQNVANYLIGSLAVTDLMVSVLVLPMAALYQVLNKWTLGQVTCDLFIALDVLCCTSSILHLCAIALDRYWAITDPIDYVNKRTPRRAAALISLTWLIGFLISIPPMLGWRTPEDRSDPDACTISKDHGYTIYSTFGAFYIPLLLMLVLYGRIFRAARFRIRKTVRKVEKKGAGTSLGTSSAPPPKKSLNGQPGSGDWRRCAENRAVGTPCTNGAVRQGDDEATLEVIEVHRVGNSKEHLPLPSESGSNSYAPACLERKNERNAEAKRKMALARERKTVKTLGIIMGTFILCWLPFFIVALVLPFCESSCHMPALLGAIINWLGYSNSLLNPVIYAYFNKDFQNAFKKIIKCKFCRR

Rattus norvegicus [22] = experiment: Antipsychotic activity in 8-OH-DPAT-stimulated rat assessed as lower lip retractions at 20 mg/kg, iv administered 45 mins before 8-OH-DPAT challenge measured after 15 to 45 mins (reference value: 2.9 retractions); type: functional
Mus musculus [23] = experiment: Anxiolytic-like activity in mouse assessed as number of punished crossing at 5 mg/kg, ip after 6 mins by four-plate test (reference value: 1514 +/- 73 crossings); type: functional; conditions: route intraperitoneal
Mus musculus [24] = species: Mus musculus; conditions: Swiss albino, 5 mg/kg; remark: listed apart in the source
Description: Hypothermic effect in Swiss albino mouse assessed as change in body temperature at 5 mg/kg, ip measured after 30 mins in presence of 0.1 mg/kg, sc 5-HT1A antagonist WAY 100635

Rattus norvegicus [25] = experiment: Induction of 5HT1A receptor in rat assesses as lower lip retractions at 5 mg/kg, iv after 15 mins (reference value: 0.1 +/- 0.1 retractions); type: functional
Mus musculus [26] = experiment: Antipsychotic activity in mouse assessed as reversal of apomorphine-induced mesh climbing response at 50 mg/kg, ip administered 10 mins prior to apomorphine challenge measured after 30 mins; type: functional, organism-based; set-up: dose 50 mg/kg
Mus musculus [27] = species: Mus musculus; conditions: Swiss albino, 20 mg/kg
Description: Hypothermic effect in Swiss albino mouse assessed as change in body temperature at 20 mg/kg, ip measured after 30 mins in presence of 5 mg/kg, sc 8-OH-DPAT

Mus musculus [28] = species: Mus musculus; conditions: Swiss albino, 20 mg/kg; remark: listed apart in the source
Description: Hypothermic effect in Swiss albino mouse assessed as change in body temperature at 20 mg/kg, ip measured after 60 mins

Mus musculus [29] = species: Mus musculus; conditions: Swiss albino, 10 mg/kg
Description: Hypothermic effect in Swiss albino mouse assessed as change in body temperature at 10 mg/kg, ip measured after 90 mins

Mus musculus [30] = species: Mus musculus; conditions: Swiss albino, 20 mg/kg; remark: listed apart in the source
Description: Hypothermic effect in Swiss albino mouse assessed as change in body temperature at 20 mg/kg, ip measured after 15 mins in presence of 5 mg/kg, sc 8-OH-DPAT

Mus musculus [31] = species: Mus musculus; conditions: Swiss albino, 20 mg/kg; remark: listed apart in the source
Description: Hypothermic effect in Swiss albino mouse assessed as change in body temperature at 20 mg/kg, ip measured after 90 mins

Mus musculus [32] = species: Mus musculus; conditions: Swiss albino, 10 mg/kg; remark: listed apart in the source
Description: Hypothermic effect in Swiss albino mouse assessed as change in body temperature at 10 mg/kg, ip measured after 60 mins

Mus musculus [33] = species: Mus musculus; conditions: Swiss albino, 20 mg/kg; remark: listed apart in the source
Description: Hypothermic effect in Swiss albino mouse assessed as change in body temperature at 20 mg/kg, ip measured after 45 mins in presence of 5 mg/kg, sc 8-OH-DPAT

Mus musculus [34] = species: Mus musculus; conditions: Swiss albino, 20 mg/kg; remark: listed apart in the source
Description: Hypothermic effect in Swiss albino mouse assessed as change in body temperature at 20 mg/kg, ip measured after 60 mins in presence of 5 mg/kg, sc 8-OH-DPAT

Mus musculus [35] = species: Mus musculus; conditions: Swiss albino, 20 mg/kg; remark: listed apart in the source
Description: Hypothermic effect in Swiss albino mouse assessed as change in body temperature at 20 mg/kg, ip measured after 30 mins

Mus musculus [36] = species: Mus musculus; conditions: Swiss albino, 10 mg/kg; remark: listed apart in the source
Description: Hypothermic effect in Swiss albino mouse assessed as change in body temperature at 10 mg/kg, ip measured after 120 mins

Mus musculus [37] = species: Mus musculus; conditions: Swiss albino, 20 mg/kg; remark: listed apart in the source
Description: Hypothermic effect in Swiss albino mouse assessed as change in body temperature at 20 mg/kg, ip measured after 120 mins

Mus musculus [38] = experiment: Antipsychotic activity in mouse assessed as reversal of apomorphine-induced mesh climbing response at 50 mg/kg, ip administered 20 mins prior to apomorphine challenge measured after 40 mins
Mus musculus [39] = species: Mus musculus; conditions: Swiss albino, 10 mg/kg; remark: listed apart in the source
Description: Hypothermic effect in Swiss albino mouse assessed as change in body temperature at 10 mg/kg, ip measured after 30 mins

Mus musculus [40] = species: Mus musculus; conditions: Swiss albino, 20 mg/kg; remark: listed apart in the source
Description: Hypothermic effect in Swiss albino mouse assessed as change in body temperature at 20 mg/kg, ip measured after 60 mins in presence of 0.1 mg/kg, sc 5-HT1A antagonist WAY 100635

Mus musculus [41] = experiment: Antidepressant-like activity in Swiss albino mouse assessed as immobilization time at 20 mg/kg, ip after 30 mins by forced swim test; type: functional, organism-based; set-up: dose 20 mg/kg
Mus musculus [42] = experiment: Antidepressant-like activity in Swiss albino mouse assessed as immobilization time at 10 mg/kg, ip after 30 mins by forced swim test; type: functional; conditions: route intraperitoneal
Mus musculus [43] = species: Mus musculus; conditions: Swiss albino, 20 mg/kg; remark: listed apart in the source
Description: Hypothermic effect in Swiss albino mouse assessed as change in body temperature at 20 mg/kg, ip measured after 30 mins in presence of 0.1 mg/kg, sc 5-HT1A antagonist WAY 100635

Mus musculus [44] = experiment: Anxiolytic-like activity in mouse assessed as number of punished crossing at 10 mg/kg, ip after 30 mins by four-plate test (reference value: 554 +/- 46 crossings); type: functional; conditions: route intraperitoneal
Mus musculus [45] = experiment: Anxiolytic-like activity in mouse assessed as number of punished crossing at 10 mg/kg, ip after 6 mins by four-plate test (reference value: 554 +/- 46 crossings); type: functional; conditions: route intraperitoneal
Mus musculus [46] = experiment: Antidepressant-like activity in Swiss albino mouse assessed as immobilization time at 1 mg/kg, sc after 30 mins by forced swim test; type: functional; conditions: route subcutaneous
Mus musculus [47] = experiment: Antidepressant-like activity in Swiss albino mouse assessed as immobilization time at 2 mg/kg, sc after 30 mins by forced swim test; type: functional; conditions: route subcutaneous
Rattus norvegicus [48] = experiment: Induction of 5HT1A receptor in rat assesses as lower lip retractions at 0.1 mg/kg, iv after 15 mins (reference value: 0.1 +/- 0.1 retractions); type: functional
Rattus norvegicus [49] = experiment: Antipsychotic activity in 8-OH-DPAT-stimulated rat assessed as lower lip retractions at 0.1 mg/kg, iv administered 45 mins before 8-OH-DPAT challenge measured after 15 to 45 mins (reference value: 2.9 retractions); type: functional

| SMILES | Activity (Mus musculus [4]) [%] | Ki [6] [nM] | deltaT (Mus musculus [7]) [°C] | deltaT (Mus musculus [8]) [°C] | Activity (Mus musculus [9]) [%] | Ki (D(2) dopamine receptor) [nM] | Activity (Rattus norvegicus [10]) | Activity (Rattus norvegicus [11]) | deltaT (Mus musculus [14]) [°C] | Activity (Rattus norvegicus [16]) | deltaT (Mus musculus [20]) [°C] | Ki [21] [nM] | Activity (Rattus norvegicus [22]) | deltaT (Mus musculus [28]) [°C] | deltaT (Mus musculus [31]) [°C] | deltaT (Mus musculus [35]) [°C] | deltaT (Mus musculus [37]) [°C] | further results |
| --- | --- | --- | --- | --- | --- | --- | --- | --- | --- | --- | --- | --- | --- | --- | --- | --- | --- | --- |
| O=C(N[C@@H]1CC2CC[C@H](C1)N2Cc1ccccc1)c1ccc2ccccc2c1 (single isomer, unassigned) | 100 | 2.5 | -0.9 | -0.5 | 81 | 82.4 | 0.2 | 2.6 | -1.5 | 0.1 | -0.6 | 304 | 2.6 |  |  |  |  | Activity (Mus musculus [1]): inactive; Activity (Mus musculus [2]): 95%; deltaT (Mus musculus [3]): 0.1 °C; deltaT (Mus musculus [5]): -0.9 °C; Activity (Mus musculus [12]): inactive; Activity (Mus musculus [13]): 321; Activity (Rattus norvegicus [15]): 2.7; deltaT (Mus musculus [17]): -0.2 °C; deltaT (Mus musculus [18]): 0 °C; deltaT (Mus musculus [19]): -0.1 °C; Activity (Mus musculus [23]): 15; deltaT (Mus musculus [24]): -1.3 °C; Activity (Rattus norvegicus [25]): 0.1 |
| COc1cc(N)c(Cl)cc1C(=O)N[C@@H]1CC2CC[C@H](C1)N2CC1CCCO1 (single isomer, unassigned) | 92 | 6.2 | -0.1 | 0 | 63 | 103 | 0.3 | 2.4 | -0.1 | 0.5 | 0 | 5700 | 2.4 | -0.3 | -0.1 | -0.8 | -0.1 | Activity (Mus musculus [26]): Active; deltaT (Mus musculus [27]): -2.9 °C; deltaT (Mus musculus [29]): -0.1 °C; deltaT (Mus musculus [30]): -2.9 °C; deltaT (Mus musculus [32]): 0 °C; deltaT (Mus musculus [33]): -1.6 °C; deltaT (Mus musculus [34]): -0.6 °C; deltaT (Mus musculus [36]): 0 °C; Activity (Mus musculus [38]): Active; deltaT (Mus musculus [39]): -0.2 °C |
| O=C(N[C@H]1CC2CC[C@H](C1)N2Cc1ccco1)c1ccc2ccccc2c1 (single isomer, unassigned) |  | 24.1 | 0.1 | 0.1 |  | 203 | 0.1 | 2.7 | -0.2 | 0.6 | 0.1 | 2800 | 2 | -0.8 | -0.4 | -1.3 | -0.2 | deltaT (Mus musculus [40]): -1.1 °C; Activity (Mus musculus [41]): inactive; Activity (Mus musculus [42]): 9%; deltaT (Mus musculus [43]): -1.2 °C; Activity (Mus musculus [44]): 566; Activity (Mus musculus [45]): 233 |
| Br.CCCN(CCC)C1CCc2cccc(O)c2C1 (stereo not drawn) |  |  |  |  |  |  |  |  |  |  |  |  |  |  |  |  |  | Activity (Mus musculus [46]): 45%; Activity (Mus musculus [47]): 57% |
| COc1ccccc1N1CCN(CCN(C(=O)C2CCCCC2)c2ccccn2)CC1.Cl.Cl.Cl |  |  |  |  |  |  |  |  |  |  |  |  |  |  |  |  |  | Activity (Rattus norvegicus [48]): 0; Activity (Rattus norvegicus [49]): 0.3 |

— ChEMBL document CHEMBL1833947, “Synthesis and biological investigation of potential atypical antipsychotics with a tropane core. Part 1” (Eur J Med Chem, 2011)
